A short description of this data set: Tetrabenazine solubility across the pH range 2-12 (Comparative Example 1). It is filed as physicochemical. As to the method: The following example employs immediate-release tablets of tetrabenazine, in contrast to the controlled-release tablets of the present invention, to determine the solubility of tetrabenazine across the pH range 2-12.
The dissolution of tetrabenazine 12.5 mg and 25 mg immediate-release tablets was conducted in 0.1 M hydrochloric acid solution (pH 1.5).
The solubility of tetrabenazine was determined across the pH range 2-12 in water, adjusted with hydrochloric acid/sodium hydroxide as necessary and if feasible complete dissolutions at pH 7.0 and pH 12.
All samples were protected from light throughout the experiment.

Consider `COc1cc2c(cc1OC)C1CC(=O)C(CC(C)C)CN1CC2` (stereo not drawn) [tetrabenazine, 1,3,4,6,7,11b-hexahydro-9,10-dimethoxy-3-(2-methylpropyl)-2H-benzo(a)quinolizin-2-one], for which the solubility entry by setting is: (between pH 4 and pH 12) “approximately 3.0 mg/100 ml”; (pH 3) “approximately 4.0 mg/100 ml”. Further, the solubility category result (between pH 4 and pH 12) was “practically insoluble”; the solubility category result (pH 2) is recorded as “slightly soluble”; the solubility category result (pH 3) is “practically insoluble”; the solubility category entry (pH range of 3-12) is given as “practically insoluble”.

(Values after patent US20100055133A1, “PHARMACEUTICAL COMPOSITIONS” (Biovail Laboratories International (Barbados) S.R.L, priority 2008, published 2010).)
